# Data from ChEMBL document CHEMBL1124430, “Dermorphin analogues carrying an increased positive net charge in their "message" domain display extremely high mu opioid receptor selectivity” (J Med Chem, 1989).
# Square brackets hold non-standard residues; d marks the D form. Peptide text beside a SMILES is read from it. dNle = CCCC[C@@H](N)C(=O)O; dNva = CCC[C@@H](N)C(=O)O; Orn = NCCC[C@H](N)C(=O)O
# Columns and labels:
# Cavia porcellus [1] = organism: Cavia porcellus; assay: Ke value for naloxon as antagonist (compound) was measured by using Guinea pig ileum assay.; type: functional
# Cavia porcellus [2] = organism: Cavia porcellus; assay: The relative potency of compound was measured by comparing with [Leu]enkephalin in Guinea pig ileum(GPI) assay.; type: functional
# Cavia porcellus [3] = organism: Cavia porcellus; assay: Concentration of compound to inhibit 50% (IC50) electrically evoked contractions was tested in Guinea pig ileum(GPI) assay.; type: functional
# Mus musculus [4] = organism: Mus musculus; assay: Concentration of compound to inhibit 50% (IC50) electrically evoked contractions was tested in Mouse vas deferens (MVD) assay.; type: functional
# Mus musculus [5] = organism: Mus musculus; assay: Ke value for naloxone as antagonist (compound) was measured by using Mouse vas deferens (MVD) assay.; type: functional
# Mus musculus [6] = organism: Mus musculus; assay: The relative potency of compound was measured by comparing with [Leu]enkephalin in Mouse vas deferens (MVD) assay.; type: functional
# [7] = Ratio of IC50 in Mouse vas deferens and Guinea pig ileum assay; type: functional
# Cavia porcellus [8] = organism: Cavia porcellus; assay: The relative potency of compound was measured by comparing the potency of compound to the [Leu]enkephalin in Guinea pig ileum(GPI) assay.; type: functional
# Mus musculus [9] = organism: Mus musculus; assay: The relative potency of compound was measured by comparing the potency of compound to the [Leu]enkephalin in Mouse vas deferens (MVD) assay.; type: functional
# [10] = molecular target: T1, Delta-type opioid receptor (Rattus norvegicus, UniProt P33533); assay: Binding affinity against opioid receptor delta by displacement of radioligand [3H]DSLET in rat brain membrane; type: cell membranes
# T1 sequence (P33533 whole entry): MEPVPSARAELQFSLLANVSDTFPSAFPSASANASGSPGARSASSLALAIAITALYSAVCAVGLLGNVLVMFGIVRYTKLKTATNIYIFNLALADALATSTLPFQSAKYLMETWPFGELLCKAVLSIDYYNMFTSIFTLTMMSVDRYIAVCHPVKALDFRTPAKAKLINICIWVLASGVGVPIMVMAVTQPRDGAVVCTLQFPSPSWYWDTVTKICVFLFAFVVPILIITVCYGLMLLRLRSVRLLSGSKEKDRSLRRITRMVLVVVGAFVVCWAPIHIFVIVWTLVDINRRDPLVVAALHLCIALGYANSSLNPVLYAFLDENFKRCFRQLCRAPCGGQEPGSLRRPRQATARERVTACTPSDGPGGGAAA
# Mu-type opioid receptor [11] = molecular target: T2, Mu-type opioid receptor (Rattus norvegicus, UniProt P33535); assay: Binding affinity against opioid receptor mu by displacement of radioligand [3H]DAGO in rat brain membrane; type: cell membranes
# T2 sequence (P33535 whole entry): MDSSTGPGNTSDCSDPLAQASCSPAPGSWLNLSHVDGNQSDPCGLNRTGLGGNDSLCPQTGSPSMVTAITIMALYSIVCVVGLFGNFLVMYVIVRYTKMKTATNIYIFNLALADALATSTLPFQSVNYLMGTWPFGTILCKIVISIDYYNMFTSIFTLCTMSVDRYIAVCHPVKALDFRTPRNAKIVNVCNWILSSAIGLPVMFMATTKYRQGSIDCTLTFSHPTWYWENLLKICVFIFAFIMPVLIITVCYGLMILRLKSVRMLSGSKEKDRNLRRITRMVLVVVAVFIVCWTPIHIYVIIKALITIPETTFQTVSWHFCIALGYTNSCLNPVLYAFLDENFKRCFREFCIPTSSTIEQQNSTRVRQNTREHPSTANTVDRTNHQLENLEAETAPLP
# [12] = molecular target: Delta-type opioid receptor (Rattus norvegicus) (UniProt P33533); assay: The relative potency of compound was measured against opioid receptor delta to that of [Leu]enkephalin in [3H]DSLET binding assay.
# Chain of Delta-type opioid receptor (Rattus norvegicus) (P33533 whole entry): as the sequence (P33533 whole entry) above
# [13] = molecular target: Mu-type opioid receptor (Rattus norvegicus) (UniProt P33535); assay: The relative potency of compound was measured against Opioid receptor mu to that of [Leu]enkephalin in [3H]DAGO binding assay.
# Chain of Mu-type opioid receptor (Rattus norvegicus) (P33535 whole entry): as the sequence (P33535 whole entry) above
# [14] = molecular target: Mu-type opioid receptor (Rattus norvegicus) (UniProt P33535); assay: Ratio of binding affinity of opioid receptor mu and opioid receptor delta
# [15] = molecular target: T1, Delta-type opioid receptor; assay: Binding affinity against Opioid receptor delta 1 by displacement of radioligand [3H]DSLET in rat brain membrane; type: cell membranes
# [16] = molecular target: T1, Delta-type opioid receptor; assay: Binding affinity against delta opioid receptor by displacement of radioligand [3H]DSLET in rat brain membrane; type: cell membranes
# Mu-type opioid receptor [17] = molecular target: T2, Mu-type opioid receptor; assay: Binding affinity against mu opioid receptor by displacement of radioligand [3H]DAGO in rat brain membrane; type: cell membranes
# Mu-type opioid receptor [18] = molecular target: T2, Mu-type opioid receptor; assay: Binding affinity against Opioid receptor mu 1 by displacement of radioligand [3H]-DAGO in rat brain membrane; type: cell membranes
# [19] = molecular target: Delta-type opioid receptor (Rattus norvegicus) (UniProt P33533); assay: The relative potency of compound was measured against Opioid receptor delta 1 to that of [Leu]enkephalin in [3H]DSLET binding assay.
# [20] = molecular target: Mu-type opioid receptor (Rattus norvegicus) (UniProt P33535); assay: The relative potency of compound was measured against Opioid receptor mu 1 to that of [Leu]enkephalin in [3H]DAGO binding assay.
# Mu-type opioid receptor [21] = molecular target: T2, Mu-type opioid receptor; assay: Binding affinity against Opioid receptor mu 1 by displacement of radioligand [3H]DAGO in rat brain membrane; type: cell membranes
# [22] = molecular target: Delta-type opioid receptor (Rattus norvegicus) (UniProt P33533); assay: The relative potency of compound was measured against dOpioid receptor delta 1 to that of [Leu]enkephalin in [3H]DSLET binding assay.
Compound,Ke (Cavia porcellus [1]) [nM],IC50 (Cavia porcellus [3]) [nM],IC50 (Mus musculus [4]) [nM],Ke (Mus musculus [5]) [nM],Ratio [7],Relative potency (Cavia porcellus [8]),Relative potency (Mus musculus [9]),other results
CCC[C@@H](NC(=O)[C@@H](N)Cc1ccc(O)cc1)C(=O)N[C@@H](Cc1ccccc1)C(=O)N[C@@H](CCCN)C(N)=O (H-Y[dNva]F[Orn]-NH2),1.55,104,271,1.47,2.61,–,–,Relative potency (Cavia porcellus [2]): 2.36; Relative potency (Mus musculus [6]): 0.042
NC(=O)[C@@H]1CC(=O)NCCC[C@@H](NC(=O)[C@@H](N)c2ccc(O)cc2)C(=O)N[C@@H](Cc2ccccc2)C(=O)N1 [listing 1 of 2 here],1.57,–,–,2.11,107,6.8,0.00294,–
NCCCC[C@H](NC(=O)[C@H](Cc1ccccc1)NC(=O)[C@@H](CCCN=C(N)N)NC(=O)[C@@H](N)Cc1ccc(O)cc1)C(N)=O,1.17,254,781,1.64,–,–,–,–
NC(=O)[C@@H]1CC(=O)NCCC[C@@H](NC(=O)[C@@H](N)c2ccc(O)cc2)C(=O)N[C@@H](Cc2ccccc2)C(=O)N1 [listing 2 of 2 here],–,36.2,3880,–,–,–,–,Ki [10]: 2220 nM; Ki (Mu-type opioid receptor [11]): 10.4 nM
NC(=O)[C@H]1CC(=O)NCCC[C@H](NC(=O)[C@@H](N)c2ccc(O)cc2)C(=O)N[C@@H](Cc2ccccc2)C(=O)N1,–,–,–,–,–,–,–,Relative potency [12]: 0.00114; Relative potency [13]: 0.907; Ratio [14]: 213
C[C@@H](NC(=O)[C@@H](N)Cc1ccc(O)cc1)C(=O)NCC(=O)N(C)[C@@H](Cc1ccccc1)C(=O)NCCO [DAMGO],–,28.3,950,–,–,–,–,Ki [15]: 1280 nM
NC(N)=NCCC[C@@H](NC(=O)C(N)Cc1ccc(O)cc1)C(=O)NC(Cc1ccccc1)C(=O)NCCC(N)C(=O)O (stereo not given in full),1.32,257,659,1.01,2.56,0.956,0.0173,Relative potency [12]: 0.000202; Relative potency [13]: 1.63; Ratio [14]: 2180
NC(=O)[C@H](CCCN=C(N)N)NC(=O)[C@H](CCCN=C(N)N)NC(=O)[C@@H]1CC(=O)NCCC[C@@H](NC(=O)[C@@H](N)Cc2ccc(O)cc2)C(=O)N[C@@H](Cc2ccccc2)C(=O)N1 [listing 1 of 2 here],–,40.9,745,–,–,–,–,Ki [16]: 1880 nM; Ki (Mu-type opioid receptor [17]): 23.6 nM
C[C@@H](NC(=O)[C@@H](N)Cc1ccc(O)cc1)C(=O)N[C@@H](Cc1ccccc1)C(=O)N[C@@H](Cc1ccccc1)C(=O)N[C@@H](CCCN=C(N)N)C(=O)N[C@@H](CCCN=C(N)N)C(N)=O,0.57,21.6,1300,1.27,60.2,11.4,0.00875,Ki [15]: 167 nM; Ki (Mu-type opioid receptor [18]): 2.57 nM; Relative potency [19]: 0.0152; Relative potency [20]: 3.67
CCCC[C@@H](NC(=O)[C@@H](N)Cc1ccc(O)cc1)C(=O)N[C@@H](Cc1ccccc1)C(=O)N[C@@H](CCCN)C(N)=O (H-Y[dNle]F[Orn]-NH2),1.01,168,2290,1.5,13.6,–,–,Relative potency (Cavia porcellus [2]): 1.46; Relative potency (Mus musculus [6]): 0.00498
NC(=O)[C@H](CCCN=C(N)N)NC(=O)[C@H](CCCN=C(N)N)NC(=O)[C@@H]1CC(=O)NCCC[C@@H](NC(=O)[C@@H](N)Cc2ccc(O)cc2)C(=O)N[C@@H](Cc2ccccc2)C(=O)N1 [listing 2 of 2 here],2.03,–,–,2.02,18.2,6.01,0.0153,–
N=C(N)NCCC[C@@H](NC(=O)C(N)Cc1ccc(O)cc1)C(=O)NC(Cc1ccccc1)C(=O)NCCC(N)C(=O)O (stereo not given in full),–,–,–,–,–,–,–,Ki [10]: 12600 nM; Ki (Mu-type opioid receptor [11]): 5.78 nM
CCCC[C@H](NC(=O)[C@H](Cc1ccccc1)NC(=O)[C@@H](CCC)NC(=O)[C@@H](N)Cc1ccc(O)cc1)C(N)=O,1.72,30.6,153,1.27,5,–,–,Relative potency (Cavia porcellus [2]): 8.04; Relative potency (Mus musculus [6]): 0.0745; Ki [15]: 181 nM; Ki (Mu-type opioid receptor [21]): 3.53 nM; Relative potency [22]: 0.014; Relative potency [20]: 2.67
NCCC[C@H](NC(=O)[C@H](Cc1ccccc1)NC(=O)[C@@H](CCCN=C(N)N)NC(=O)[C@@H](N)Cc1ccc(O)cc1)C(N)=O,1.24,346,1090,1.13,3.15,0.712,0.0105,Relative potency [12]: 0.000272; Relative potency [13]: 7.83; Ratio [14]: 7740
C[C@@H](NC(=O)[C@@H](N)Cc1ccc(O)cc1)C(=O)N[C@@H](Cc1ccccc1)C(=O)N[C@@H](Cc1ccccc1)C(N)=O (H-Y[dA]FF-NH2),0.789,3.23,797,1.31,247,–,–,Relative potency (Cavia porcellus [2]): 76.2; Relative potency (Mus musculus [6]): 0.0143; Relative potency [19]: 0.00405; Relative potency [20]: 6.15
